In ChEMBL document CHEMBL1201862, “PubChem BioAssay data set” (2004):
“And” between values parts separate entries of the source, which are not always exact repeats. Equal entries are not always repeated. The source made the active and inactive calls.

Columns and labels:
[1] = molecular target: Peroxisome proliferator-activated receptor gamma (Homo sapiens, UniProt P37231); assay: PPARg transcriptional activation, reporter cells – cell-based, luminescence, assay provider, dose response (AID 504447); type: functional
[2] = molecular target: T1, Heat shock factor protein 1 (Mus musculus, UniProt P38532); assay: decrease of HSF1-responsive luciferase luminescence – cell-based, NIH3T3, dose retest, confirmation (AID 2382); type: functional;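 further: NIH3T3 fibroblasts with HSF1-driven luciferase reporter stressed by proteasome inhibitor MG132; luminescence from HSF1-driven luciferase expression after 8 hours of MG132 stress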
T1 sequence (P38532 whole entry): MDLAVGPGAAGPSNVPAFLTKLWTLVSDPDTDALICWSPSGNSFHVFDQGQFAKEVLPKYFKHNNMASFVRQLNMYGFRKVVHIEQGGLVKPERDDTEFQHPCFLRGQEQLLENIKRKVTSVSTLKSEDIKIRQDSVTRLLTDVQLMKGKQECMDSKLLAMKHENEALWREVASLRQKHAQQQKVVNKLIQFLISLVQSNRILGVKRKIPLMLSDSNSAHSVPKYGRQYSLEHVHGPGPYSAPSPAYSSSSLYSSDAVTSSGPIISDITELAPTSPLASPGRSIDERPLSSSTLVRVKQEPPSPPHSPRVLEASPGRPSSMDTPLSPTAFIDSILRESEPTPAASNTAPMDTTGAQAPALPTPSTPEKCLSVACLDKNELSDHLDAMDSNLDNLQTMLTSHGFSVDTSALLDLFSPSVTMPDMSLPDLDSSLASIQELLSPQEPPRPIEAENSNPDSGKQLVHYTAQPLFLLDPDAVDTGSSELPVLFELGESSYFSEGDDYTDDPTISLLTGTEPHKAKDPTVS

Nonstructural protein 1 = Nonstructural protein 1 (Influenza A virus, UniProt Q194T2); type: functional, Influenza A virus (A/California/07/2009(H1N1))
[3] = molecular target: Heat shock protein HSP 90-alpha (Homo sapiens, UniProt P07900); type: functional, organism-based
Hexokinase HKDC1 = Hexokinase HKDC1 (Homo sapiens, UniProt Q2TB90); assay: activation of HKDC1 glucose phosphorylation – biochemical, W721R variant, dose response (AID 504730); type: functional
Hexokinase-1 = Hexokinase-1 (Homo sapiens, UniProt P19367); assay: HK1 enzyme activation by HKDC1 hits – biochemical, selectivity assay for HKDC1 activator project, dose response (AID 504762); type: functional
[4] = molecular target: Glyceraldehyde-3-phosphate dehydrogenase (Homo sapiens, UniProt P04406)
[5] = molecular target: T2, Alkaline phosphatase, tissue-nonspecific isozyme (Homo sapiens, UniProt P05186); assay: SAR assay for compounds inhibiting TNAP in the absence of phosphate acceptor performed in a luminescent assay. [Related pubchem assays (depositor defined):AID1548, AID1659, AID518]
T2 sequence (P05186 whole entry): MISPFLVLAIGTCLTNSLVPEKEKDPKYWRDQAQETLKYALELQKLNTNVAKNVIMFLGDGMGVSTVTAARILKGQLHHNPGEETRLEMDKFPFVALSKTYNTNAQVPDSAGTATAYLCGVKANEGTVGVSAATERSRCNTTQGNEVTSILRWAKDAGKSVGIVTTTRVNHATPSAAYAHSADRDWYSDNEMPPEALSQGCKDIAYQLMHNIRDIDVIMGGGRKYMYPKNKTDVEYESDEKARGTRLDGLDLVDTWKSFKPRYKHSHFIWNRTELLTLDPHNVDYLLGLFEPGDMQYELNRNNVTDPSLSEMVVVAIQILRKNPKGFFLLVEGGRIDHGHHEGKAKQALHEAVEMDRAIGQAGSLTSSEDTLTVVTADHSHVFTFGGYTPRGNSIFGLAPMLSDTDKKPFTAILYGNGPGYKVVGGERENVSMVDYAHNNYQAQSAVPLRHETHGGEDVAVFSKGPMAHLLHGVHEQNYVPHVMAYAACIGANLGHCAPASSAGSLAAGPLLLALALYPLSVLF

[6] = molecular target: Alkaline phosphatase, placental type (Homo sapiens, UniProt P05187); assay: human placental alkaline phosphatase inhibition – biochemical, luminescence, confirmation (AID 1512); type: functional
[7] = molecular target: T2, Alkaline phosphatase, tissue-nonspecific isozyme; assay: potency against alkaline phosphatase TNAP – biochemical, luminescent, dose response, SAR follow-up (AID 1056)
[8] = molecular target: T3, Type-1 angiotensin II receptor (Homo sapiens, UniProt P30556); assay: agonist activity at AGTR1 – cell-based, uHTS hits, selectivity assay for APJ receptor agonist project, dose response (AID 488865); type: functional;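 further: beta-arrestin recruitment to AT1 measured by enzyme fragment complementation luminescence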
T3 sequence (P30556 whole entry): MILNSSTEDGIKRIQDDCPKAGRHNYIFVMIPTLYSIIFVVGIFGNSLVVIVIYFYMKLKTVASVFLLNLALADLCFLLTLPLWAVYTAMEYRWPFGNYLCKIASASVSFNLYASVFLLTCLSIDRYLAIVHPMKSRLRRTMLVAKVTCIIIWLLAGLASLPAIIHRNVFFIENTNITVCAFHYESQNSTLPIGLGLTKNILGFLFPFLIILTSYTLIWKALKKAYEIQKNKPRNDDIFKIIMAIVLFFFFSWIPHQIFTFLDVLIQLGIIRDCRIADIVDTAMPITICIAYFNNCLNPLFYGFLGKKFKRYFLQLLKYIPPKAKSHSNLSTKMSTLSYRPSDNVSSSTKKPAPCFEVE

[9] = molecular target: T4, Runt-related transcription factor 1/Core-binding factor subunit beta (Homo sapiens, UniProt Q01196+Q13951); assay: Runt domain/CBFb-SMMHC interaction disruptors – biochemical, TR-FRET (AID 1438); type: protein assay
[10] = molecular target: T4, Runt-related transcription factor 1/Core-binding factor subunit beta; assay: disruptors of Runt domain/CBFb-SMMHC interaction – biochemical, FRET, Cerulean-Runt, Venus-CBFb-SMMHC, uHTS, […] (AID 1434); type: protein assay
Coagulation factor XII = molecular target: T5, Coagulation factor XII (Homo sapiens, UniProt P00748); assay: Factor XIIa Dose Response Confirmation from Single Well HTS. [Related pubchem assays (depositor defined):AID701]; type: functional
T5 sequence (P00748 whole entry): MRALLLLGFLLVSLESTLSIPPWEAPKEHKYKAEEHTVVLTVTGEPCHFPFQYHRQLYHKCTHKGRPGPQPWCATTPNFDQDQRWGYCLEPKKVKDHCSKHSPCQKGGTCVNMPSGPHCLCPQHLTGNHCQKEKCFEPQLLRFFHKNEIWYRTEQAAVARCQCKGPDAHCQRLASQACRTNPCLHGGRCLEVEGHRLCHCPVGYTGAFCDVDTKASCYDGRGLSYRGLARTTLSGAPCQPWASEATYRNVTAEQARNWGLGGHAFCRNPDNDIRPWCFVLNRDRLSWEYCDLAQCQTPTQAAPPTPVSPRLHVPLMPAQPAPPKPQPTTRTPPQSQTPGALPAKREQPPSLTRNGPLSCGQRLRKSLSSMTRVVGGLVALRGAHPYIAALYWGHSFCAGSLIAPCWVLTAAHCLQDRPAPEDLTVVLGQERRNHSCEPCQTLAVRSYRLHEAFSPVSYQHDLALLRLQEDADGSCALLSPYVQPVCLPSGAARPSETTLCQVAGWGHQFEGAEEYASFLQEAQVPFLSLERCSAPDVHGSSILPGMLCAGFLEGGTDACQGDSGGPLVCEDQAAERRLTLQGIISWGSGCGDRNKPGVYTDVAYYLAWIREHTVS

[11] = molecular target: Voltage-dependent T-type calcium channel subunit alpha-1H (Homo sapiens, UniProt O95180); assay: human CACNA1H calcium influx blockade – cell-based, synthetic library set 1, calcium flux (AID 493022); type: functional
Sequence of Voltage-dependent T-type calcium channel subunit alpha-1H (O95180 whole entry): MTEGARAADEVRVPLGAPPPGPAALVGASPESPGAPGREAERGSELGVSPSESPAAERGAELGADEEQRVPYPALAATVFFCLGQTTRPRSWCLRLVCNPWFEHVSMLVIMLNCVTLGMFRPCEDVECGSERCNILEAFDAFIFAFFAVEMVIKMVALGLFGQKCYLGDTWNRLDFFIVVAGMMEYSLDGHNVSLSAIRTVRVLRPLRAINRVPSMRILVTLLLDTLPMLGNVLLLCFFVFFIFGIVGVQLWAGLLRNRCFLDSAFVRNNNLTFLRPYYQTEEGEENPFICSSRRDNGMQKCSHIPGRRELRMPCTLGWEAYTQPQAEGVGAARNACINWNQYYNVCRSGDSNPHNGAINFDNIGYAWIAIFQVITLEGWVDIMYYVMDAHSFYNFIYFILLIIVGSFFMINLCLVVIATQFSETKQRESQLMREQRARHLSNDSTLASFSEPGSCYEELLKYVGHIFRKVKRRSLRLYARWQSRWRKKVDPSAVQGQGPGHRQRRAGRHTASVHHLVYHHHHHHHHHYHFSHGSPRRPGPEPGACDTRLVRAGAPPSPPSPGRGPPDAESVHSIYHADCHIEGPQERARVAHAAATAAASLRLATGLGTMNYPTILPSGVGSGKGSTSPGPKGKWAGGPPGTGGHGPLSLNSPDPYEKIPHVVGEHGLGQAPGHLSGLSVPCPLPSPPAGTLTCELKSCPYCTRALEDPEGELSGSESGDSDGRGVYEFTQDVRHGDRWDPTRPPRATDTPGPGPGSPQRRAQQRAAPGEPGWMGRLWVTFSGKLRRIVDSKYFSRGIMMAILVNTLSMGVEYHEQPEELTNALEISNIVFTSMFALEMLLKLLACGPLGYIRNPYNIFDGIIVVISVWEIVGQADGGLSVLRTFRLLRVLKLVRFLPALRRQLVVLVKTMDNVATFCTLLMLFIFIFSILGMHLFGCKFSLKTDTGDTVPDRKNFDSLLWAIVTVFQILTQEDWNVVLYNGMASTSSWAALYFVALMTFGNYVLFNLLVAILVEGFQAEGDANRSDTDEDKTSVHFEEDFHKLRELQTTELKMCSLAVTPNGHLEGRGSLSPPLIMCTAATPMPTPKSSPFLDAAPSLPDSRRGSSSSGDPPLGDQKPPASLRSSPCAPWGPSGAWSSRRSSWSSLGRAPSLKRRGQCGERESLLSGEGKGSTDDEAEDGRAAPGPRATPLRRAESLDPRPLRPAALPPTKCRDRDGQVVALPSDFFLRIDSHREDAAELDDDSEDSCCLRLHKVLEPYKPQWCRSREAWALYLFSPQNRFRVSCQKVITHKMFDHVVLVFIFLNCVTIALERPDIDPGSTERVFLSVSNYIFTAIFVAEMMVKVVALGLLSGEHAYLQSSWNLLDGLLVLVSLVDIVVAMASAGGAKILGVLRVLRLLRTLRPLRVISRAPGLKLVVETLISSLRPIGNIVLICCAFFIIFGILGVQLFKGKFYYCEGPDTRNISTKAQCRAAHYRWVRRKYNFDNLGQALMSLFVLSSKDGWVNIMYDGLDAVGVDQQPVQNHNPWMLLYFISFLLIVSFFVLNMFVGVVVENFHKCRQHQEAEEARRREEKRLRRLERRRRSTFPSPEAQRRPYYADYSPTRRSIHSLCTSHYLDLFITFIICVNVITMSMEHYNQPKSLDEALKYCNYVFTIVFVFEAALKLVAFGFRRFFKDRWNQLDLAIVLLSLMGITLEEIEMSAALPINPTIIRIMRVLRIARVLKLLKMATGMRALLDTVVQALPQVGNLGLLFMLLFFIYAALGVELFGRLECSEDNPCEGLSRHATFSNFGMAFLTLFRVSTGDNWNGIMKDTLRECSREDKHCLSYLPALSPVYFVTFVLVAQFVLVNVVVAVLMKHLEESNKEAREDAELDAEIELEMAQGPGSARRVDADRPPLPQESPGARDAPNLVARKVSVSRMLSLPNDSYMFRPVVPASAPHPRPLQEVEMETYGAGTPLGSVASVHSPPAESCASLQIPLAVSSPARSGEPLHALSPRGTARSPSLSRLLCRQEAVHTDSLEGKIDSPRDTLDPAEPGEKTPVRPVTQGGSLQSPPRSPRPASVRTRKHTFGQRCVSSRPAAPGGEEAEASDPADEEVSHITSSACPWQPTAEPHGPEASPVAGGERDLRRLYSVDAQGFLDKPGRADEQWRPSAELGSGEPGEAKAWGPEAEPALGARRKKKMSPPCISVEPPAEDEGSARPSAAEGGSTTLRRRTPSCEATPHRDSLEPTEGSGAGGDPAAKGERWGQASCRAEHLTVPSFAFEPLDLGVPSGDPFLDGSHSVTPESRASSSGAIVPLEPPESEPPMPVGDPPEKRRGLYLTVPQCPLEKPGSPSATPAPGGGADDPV

T4 sequence (Q01196 whole entry, the tested form may be a part): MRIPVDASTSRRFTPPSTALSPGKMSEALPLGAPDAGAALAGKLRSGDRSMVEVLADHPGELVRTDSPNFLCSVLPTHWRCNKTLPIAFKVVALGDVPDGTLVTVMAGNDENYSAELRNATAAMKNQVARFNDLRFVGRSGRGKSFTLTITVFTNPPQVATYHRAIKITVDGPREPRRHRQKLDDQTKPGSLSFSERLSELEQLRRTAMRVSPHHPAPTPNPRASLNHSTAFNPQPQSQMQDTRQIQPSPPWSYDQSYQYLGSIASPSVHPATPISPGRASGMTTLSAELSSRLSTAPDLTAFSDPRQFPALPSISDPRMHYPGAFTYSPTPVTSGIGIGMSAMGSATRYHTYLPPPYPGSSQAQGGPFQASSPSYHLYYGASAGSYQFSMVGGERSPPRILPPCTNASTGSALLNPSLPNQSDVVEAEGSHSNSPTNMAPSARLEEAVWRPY
T4 sequence (Q13951 whole entry, the tested form may be a part): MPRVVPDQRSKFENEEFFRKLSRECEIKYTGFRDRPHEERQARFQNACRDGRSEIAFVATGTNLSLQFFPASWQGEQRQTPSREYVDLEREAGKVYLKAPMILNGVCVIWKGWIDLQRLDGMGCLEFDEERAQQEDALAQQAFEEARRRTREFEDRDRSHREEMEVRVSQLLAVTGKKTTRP
Sequence of Hexokinase HKDC1 (Q2TB90 whole entry): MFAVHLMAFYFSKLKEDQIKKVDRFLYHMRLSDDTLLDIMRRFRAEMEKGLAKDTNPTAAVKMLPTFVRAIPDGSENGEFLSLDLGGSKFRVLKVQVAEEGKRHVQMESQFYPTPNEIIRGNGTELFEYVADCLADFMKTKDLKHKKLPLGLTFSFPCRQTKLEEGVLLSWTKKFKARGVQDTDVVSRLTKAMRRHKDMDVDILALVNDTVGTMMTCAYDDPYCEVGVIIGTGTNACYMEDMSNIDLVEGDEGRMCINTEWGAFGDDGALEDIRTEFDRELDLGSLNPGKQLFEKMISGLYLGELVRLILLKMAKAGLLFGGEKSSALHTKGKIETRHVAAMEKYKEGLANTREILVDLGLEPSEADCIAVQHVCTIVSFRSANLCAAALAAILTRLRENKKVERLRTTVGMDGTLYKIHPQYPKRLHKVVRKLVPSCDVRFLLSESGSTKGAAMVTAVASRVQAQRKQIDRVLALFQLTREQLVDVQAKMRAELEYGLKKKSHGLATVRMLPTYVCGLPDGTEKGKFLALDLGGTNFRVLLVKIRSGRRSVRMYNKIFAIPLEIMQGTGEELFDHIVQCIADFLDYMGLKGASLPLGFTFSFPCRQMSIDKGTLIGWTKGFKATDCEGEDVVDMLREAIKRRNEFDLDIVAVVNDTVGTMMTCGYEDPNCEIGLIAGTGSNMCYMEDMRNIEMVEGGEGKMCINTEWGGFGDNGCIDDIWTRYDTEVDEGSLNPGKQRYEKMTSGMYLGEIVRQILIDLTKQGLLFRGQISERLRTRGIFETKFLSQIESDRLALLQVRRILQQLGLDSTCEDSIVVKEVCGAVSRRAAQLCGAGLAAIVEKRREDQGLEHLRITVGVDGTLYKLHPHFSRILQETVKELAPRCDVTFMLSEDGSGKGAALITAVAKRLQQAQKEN
Sequence of Glyceraldehyde-3-phosphate dehydrogenase (P04406 whole entry): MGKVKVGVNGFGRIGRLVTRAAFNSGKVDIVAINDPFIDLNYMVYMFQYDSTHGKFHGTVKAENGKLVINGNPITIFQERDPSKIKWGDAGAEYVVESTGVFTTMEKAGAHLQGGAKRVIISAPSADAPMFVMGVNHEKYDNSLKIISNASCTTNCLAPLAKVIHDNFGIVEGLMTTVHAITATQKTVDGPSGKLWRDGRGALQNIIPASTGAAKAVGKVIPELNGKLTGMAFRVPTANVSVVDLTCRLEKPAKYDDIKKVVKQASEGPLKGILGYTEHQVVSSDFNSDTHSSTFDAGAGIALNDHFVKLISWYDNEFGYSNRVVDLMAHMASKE
Sequence of Peroxisome proliferator-activated receptor gamma (P37231 whole entry): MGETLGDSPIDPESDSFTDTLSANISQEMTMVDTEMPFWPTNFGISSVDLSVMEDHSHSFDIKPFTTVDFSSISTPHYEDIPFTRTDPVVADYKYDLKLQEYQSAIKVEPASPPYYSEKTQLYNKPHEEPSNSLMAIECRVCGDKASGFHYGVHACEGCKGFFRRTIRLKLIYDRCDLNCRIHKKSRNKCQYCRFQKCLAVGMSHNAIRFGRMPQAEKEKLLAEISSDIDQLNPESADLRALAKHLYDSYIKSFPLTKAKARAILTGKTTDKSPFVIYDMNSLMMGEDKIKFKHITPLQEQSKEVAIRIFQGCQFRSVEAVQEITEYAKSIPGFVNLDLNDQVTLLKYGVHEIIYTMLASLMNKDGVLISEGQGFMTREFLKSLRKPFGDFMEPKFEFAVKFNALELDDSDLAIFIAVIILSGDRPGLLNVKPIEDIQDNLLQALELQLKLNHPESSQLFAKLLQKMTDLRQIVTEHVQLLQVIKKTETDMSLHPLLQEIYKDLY
Sequence of Nonstructural protein 1 (Q194T2 whole entry): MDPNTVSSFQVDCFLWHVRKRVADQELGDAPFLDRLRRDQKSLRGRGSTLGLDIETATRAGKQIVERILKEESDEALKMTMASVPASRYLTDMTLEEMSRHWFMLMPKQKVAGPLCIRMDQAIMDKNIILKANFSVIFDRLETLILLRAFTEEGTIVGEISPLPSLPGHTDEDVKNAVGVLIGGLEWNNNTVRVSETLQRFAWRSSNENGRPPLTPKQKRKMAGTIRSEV

Cc1cc(C(=O)CN2C(=O)C(=O)N(Cc3ccccc3)C2=O)c(C)n1-c1ccc2c(c1)OCCO2
EC50 [1]: 15 µM (active) | EC50 [2]: > 195 µM (not active)

CC(=NNC(=S)Nc1cccc(C)c1)c1ccccn1
IC50 (Nonstructural protein 1): 8.54 µM (active) | AC50 [3]: 2.25 µM (active) | EC50 (Hexokinase HKDC1): 2.27 µM (active) | EC50 (Hexokinase-1): > 80 µM (inactive)

COc1ccc(C)cc1S(=O)(=O)Nc1cccnc1
IC50 [4]: > 100 µM (not active) | IC50 [5]: 16.6 µM (active) and 16.4 µM (active) | IC50 [6]: > 100 µM (inactive) | IC50 [7]: 2.34 µM (active) and 1.6 µM (active)

COc1cc2c(cc1NC(=O)c1cc(-c3ccncc3)nc3ccc(C)cc13)oc1ccccc12
EC50 [8]: > 100 µM (inactive)

Cn1c(=O)c(/C=N/c2ccccc2)c(O)c2ccccc21
IC50 [9]: > 100 µM (inactive) | IC50 [10]: > 100 µM (inactive)

CC(C)CN(CC(C)C)S(=O)(=O)N1CCC(C(=O)NCCc2ccc(Cl)cc2)CC1
IC50 (Coagulation factor XII): > 50 µM (inactive)

Cc1ccc(-c2nnc(NC(=O)C(C)(C)Oc3ccccc3)o2)cc1C
EC50 [11]: 2.1 µM (active)
